According to patent US8987486B2, “Trans-2-decenoic acid derivative and pharmaceutical agent containing the same” (Nagoya Industrial Science Research Institute, priority 2010, dated 2015):

What was measured:
[1] = test system: paclitaxel-induced peripheral nerve disorder rats; assay: von Frey test in paclitaxel-induced peripheral nerve disorder rats; type: in vivo; conditions: Rattus norvegicus, ip; single intraperitoneal dose of 300 μ/kg; higher of the thresholds after 1 hour and 5 hours; normal threshold 15; read-out: Recovery rate of 50% reaction threshold value (%)
Experimental: The effect of the compound of the present invention was tested for a peripheral nerve disorder which is a side effect induced by the administration of paclitaxel (an anti-cancer agent) such as hyperesthesia including allodynia (severe pain induced by such tactile stimuli which usually cause no pain). The compound of the present invention was intraperitoneally administered to rats as a test drug to conduct a von Frey test.
Male SD rats of six weeks age (one group comprising six rats) were used as experimental animals and paclitaxel (2 mg/kg) was intraperitoneally administered every other day for four times in total to prepare paclitaxel-induced peripheral nerve disorder rats. During 18 and 25 days or during 20 to 27 days after initiation of paclitaxel administration, the test drug was intraperitoneally administered in a single dose of […] and the following von Frey test was conducted.
The rats of the above (1) were placed in a transparent acrylic cage with a wire-meshed floor and habituated for about three minutes and the 50% reaction threshold values to the mechanical stimulus of right hind limb were measured before administration of the test drug and after 1, 5 and 24 hours from initiation of the administration.
The measurement was conducted using von Frey filaments (manufactured by North Coast Medical Inc.) in accordance with the methods of Chaplan, et al. (Journal of Neuroscience Methods, vol. 53, no. 1, pages 55 to 63, 1994) and Dixon, et al. (Annual Review of Pharmacology and Toxicology, vol. 20, pages 441 to 462, 1980). […] The case where the rat escaped at the instance of removing the filament was also called positive. When the positive reaction was noted, stimulus was conducted similarly using a filament of one rank weaker while, when no reaction was noted, stimulus was conducted similarly using a filament of one rank stronger and the point when the reaction changed from negative to positive or from positive to negative was called the first two reactions. After that, stimulus was conducted for continuous four times by the same up-down method. A 50% reaction threshold value to the mechanical stimulus was measured using the reaction to the six stimuli in total and then (mean value)±(standard error) for each group was calculated. Incidentally, when stimulus reached by that of 15.0 g without positive reaction or, when positive reaction continued to 0.4 g, then 15.0 g or 0.25 g was adopted as each threshold value, respectively. With regard to the higher 50% reaction threshold value between the 50% threshold values after 1 hour and 5 hours from administration of a test drug, a recovery rate (%) of the 50% reaction threshold value was calculated by the following expression in which 15 was adopted as the normal threshold value. Recovery rate (%) of 50% reaction threshold value=[(50% reaction threshold value after 1 hour or 5 hours from administration of test drug)−(50% reaction threshold value before administration of test drug)]/[(Normal threshold value)−(50% reaction threshold value before administration of test drug)]

PC12 cells = assay: Evaluation using PC12 cells; immunostaining method for MAPK phosphorylation; type: cell-based; conditions: 30 minutes
Experimental: PC12 cells were stimulated using the compound of the present invention and the phosphorylation of MAPK was evaluated by means of immunostaining of the cells. The specific operation procedure is as follows.
A cover glass was placed on a 24-well plate followed by coating with poly-L-lysine. PC12 cells were seeded in a cell density of 50,000 cells/well. (The amount of the medium was 400 μL) On the first day after seeding the cells, the medium was exchanged to DMEM containing 1% fetal bovine serum (FBS) and 0.06% L-glutamine.
The compound which was previously diluted with DMSO was dissolved in 100 μl of medium. After 12 to 16 hours from the medium exchange, 100 μl out of 400 μl of the medium was removed from each well and, in place of that, 100 μl of a medium containing the compound was added.
After 30 minutes from the addition, fixation was conducted using 4% paraformaldehyde (PFA) for 10 minutes. The fixed cells were washed with a Tris-buffered saline (TBS) and a TBS containing 0.3% Triton X was added thereto followed by incubating at 37° C. for 30 minutes. This was washed with a TBS and blocked with a TBS containing 3% skim milk for 30 minutes (at room temperature).
This was washed with a TBS for one time and a primary antibody (anti-phospho-p42/44 MAPK antibody; cell signalings; #9102 being diluted with TBS to an extent of 1,000-fold) was added thereto followed by subjecting to the reaction at 4° C. for one night. The primary antibody was removed and washed with a TBS for three times. After that, the secondary antibody (Alexa 488 goat anti-rabbit antibody; Invitrogen: being diluted to an extent of 1,000-fold using a TBS containing 1% Block Ace) was added thereto and the reaction was conducted at room temperature for 3 hours. The secondary antibody was removed and, after washing with a TBS, fixation was conducted with 4% PFA for 1 hour.
This was washed with a TBS, Hoechst (diluted with a TBS to an extent of 2000-fold) was added thereto and nuclear staining was conducted. This was washed and mounted.
Taking the photographic pictures and counting the positive cells were conducted as follows. An all-in-one microscope (manufactured by Keyence) was used, exposing time for pMAPK (green) was made 1/2.8 s, the place was appropriately decided in a Hoechst-stained image and the pictures were taken. Four pictures per one glass sheet were taken.
Photoshop (Adobe) was used and the cells having above a certain luminance were judged to be positive. All cells were labeled using Hoechst 33342 manufactured by Invitrogen and the rate of pMAPK-positive cells in Hoechst-positive cells was calculated. (cf. Table 7)

MAP kinase = assay: Activation (phosphorylation) of MAP kinase by Western immunoblotting in cultured cerebral cortex nerve cells; type: cell-based, rat; conditions: for Ratio of pMAPK to MAPK: Test Example 6, relative to control (0 μg/mL = 1.0)
Experimental: With regard to the compound 1 ((E)-2-(dimethylamino)-ethyl dec-2-enoate), activation of MAP kinase was measured as follows by a Western immunoblotting.
Nerve cells were dispersed from cerebral cortex of a fetal rat of 17 days age and said nerve cells were cultured for one day in a Dulbecco-modified Eagle medium (DMEM) containing 5% fetal bovine serum. The culture medium was exchanged with a serum-free medium (B27 supplement-added Neurobasal; Invitrogen) and the nerve cells were cultured at the density of 20,000 to 40,000 cells per cm^2 in a culture dish coated with polyornithine.
After three days, the compound 1 was added and the culture was continued for 30 minutes. After that, the cells were recovered on ice using a solution containing a phosphatase inhibitor where Tris-HCl buffer was a base. Protein concentration of the resulting cell extract was quantified using a BCA Protein Assay Kit (Takara Bio KK) and a certine amount of protein (3 μg for the measurement of MAP kinase and 5 μg for the measurement of phosphorylated MAP kinase) was subjected to polyacrylamide gel electrophoresis. The protein was transcribed from the gel after the electrophoresis to a PVDF membrane and a Western immunoblotting was carried out using each of an anti-MAP kinase antibody (Cell Signaling Technology) and an anti-phosphorylated MAP kinase antibody (Cell Signaling Technology) of the primary antibody.
After that, the reaction with an alkaline phosphatase-labeled anti-rabbit IgG antibody (Promega) of the secondary antibody was carried out so that the enzymatic activity was colorized whereupon the MAP kinase and the phosphorylated MAP kinase were measured.
Incidentally, the compound 1 was adjusted to the concentrations of 10 μg/ml, 30 μg/ml, 100 μg/ml and 300 μg/ml by dissolving in 0.1% DMSO. With regard to the control, 0.1% DMSO was added.
Intensity of the concentration of the above-obtained band of the gel subjected to electrophoresis was calculated and quantified using Image J (K. K. Bioarts). The numerical value for the MAP kinase using the compound 1 was divided by the numerical value for the MAP kinase of the control and, further, the numerical value for the phosphorylated MAP kinase using the compound 1 was divided by the numerical value for the phosphorylated MAP kinase of the control whereupon the ratio of the MAP kinase using the compound 1 to the control and the ratio of the phosphorylated kinase using the compound 1 to the control were determined.
After that, the resulting ratio of the phosphorylated MAP kinase to the control was divided by the resulting ratio of the MAP kinase to the control to determine the ratio of the phosphorylated MAP kinase to the MAP kinase (cf. Table 5). In Table 5, “MAPK” means a MAP kinase and “pMAPK” means a phosphorylated MAP kinase. “10”, “30”, “100” and “300” in Table 5 show the examples where 10 μg/ml, 30 μg/ml, 100 μg/ml and 300 μg/ml of the compound 1 were added.
MAP kinase and phosphorylated MAP kinase were measured for the compound 6 ((E)-2-(diethylamino)ethyl dec-2-enoate) and the compound 13 ((E)-2-(2-(diethylamino)ethoxy)ethyl dec-2-enoate) by the same method as in Test Example 1.
Each of the compounds 6 and 13 was dissolved in 0.1% DMSO to adjust to the concentration of 250 μg/ml. With regard to the control, 0.1% DMSO was added. With regard to the concentration of the resulting band of the gel subjected to electrophoresis, its intensity was calculated by the same method as in Test Example 1 using Image J (K. K. Bioarts) and the ratio of the phosphorylated MAP kinase to the control was divided by the resulting ratio of the MAP kinase to the control whereupon the ratio of the phosphorylated MAP kinase to the MAP kinase was determined (cf. Table 6).
With regard to the compound of the present invention, its activation for MAP kinase was measured by the same manner as in Test Example 1.
Each compound was dissolved in 0.1% DMSO to adjust to the concentrations of 30 μg/ml, 60 μg/ml, 125 μg/ml and 250 μg/ml. […]

SMILES	inhibition in vivo at 0.3 mg/kg [1]	Rate of pMAPK-positive cells (%) (PC12 cells; 62.5 μg/mL)	Rate of pMAPK-positive cells (%) (PC12 cells; 125 μg/mL)	Rate of pMAPK-positive cells (%) (PC12 cells; 250 μg/mL)	Rate of pMAPK-positive cells (%) (PC12 cells; 500 μg/mL)	Ratio of pMAPK to MAPK (MAP kinase; 30 μg/mL)	Ratio of pMAPK to MAPK (MAP kinase; 60 μg/mL)	Ratio of pMAPK to MAPK (MAP kinase; 125 μg/mL)	pMAPK/MAPK/Control (MAP kinase; 250 μg/ml, Test Example 2, control = 1.00)
CCCCCCC/C=C/C(=O)OCCCN(C)C [Compound 2, (E)-3-(dimethylamino)propyl dec-2-enoate]	58.1%	0%	19%	71%	53%	–	–	–	–
CCCCCCC/C=C/C(=O)OCCCCN(C)C [Compound 4, (E)-4-(dimethylamino)butyl dec-2-enoate]	–	12%	27%	64%	81%	2.2	3.2	20.6	–
CCCCCCC/C=C/C(=O)OCCOCCN(CC)CC [Compound 13, (E)-2-(2-(diethylamino)ethoxy)ethyl dec-2-enoate]	–	35%	35%	52%	–	2.6	3.1	1.3	1.46
CCCCCCC/C=C/C(=O)N(CC)CC [Compound 31, (E)-N,N-diethyl dec-2-enamide]	43.1%	79%	95%	98%	96%	–	–	–	–
CCCCCCC/C=C/C(=O)N(C)CCN(C)C [Compound 42, (E)-N-(2-(dimethylamino)ethyl)-N-methyl dec-2-enamide]	48.7%	6%	7%	27%	–	–	–	–	–
CCCCCCC/C=C/C(=O)N(CC)CCN(C)C [Compound 43, (E)-N-(2-(dimethylamino)ethyl)-N-ethyl dec-2-enamide]	40.3%	20%	26%	49%	–	–	–	–	–
CCCCCCC/C=C/C(=O)N(CC)CCN(CC)CC [Compound 44, (E)-N-(2-(diethylamino)ethyl)-N-ethyl dec-2-enamide]	62.6%	17%	7%	18%	–	–	–	–	–
CCCCCCC/C=C/C(=O)N(CCN(C)C)CCN(C)C [Compound 45, (E)-N,N-bis(2-(dimethylamino)ethyl) dec-2-enamide]	37%	34%	67%	50%	–	–	–	–	–
CCCCCCC/C=C/C(=O)N(CCN(CC)CC)CCN(CC)CC [Compound 46, (E)-N,N-bis(2-(diethylamino)ethyl) dec-2-enamide]	19.9%	22%	13%	32%	–	–	–	–	–
CCCCCCC/C=C/C(=O)N(CCCN(C)C)CCCN(C)C [Compound 47, (E)-N,N-bis(3-(dimethylamino)propyl) dec-2-enamide]	37.4%	17%	33%	23%	–	–	–	–	–
